Assay results reported in patent US11672802B2, “Induction of immune tolerance by using methotrexate” (Genzyme Corporation, priority 2011, dated 2023).

Tests used:
[1] = system: CD4+ and CD8+ T cells, T regulatory cells, B cells; assay: Flow cytometry of lymphocyte populations in mATG-treated mice; assay type: in vivo, C57BL/6 mice
Procedure: (§1) For splenocyte and lymph node cell preparations single-cell suspensions were generated from harvested mouse spleens or inguinal and mesenteric lymph nodes by homogenization between frosted glass slides into PBS containing 2% FCS. For splenocyte preparations, red blood cells were lysed by 1-2 minute incubation with a red blood cell lysis solution (BD Biosciences, San Diego, Calif.). Blood was isolated by retro-orbital bleeding and cell preparations were performed by lysing red blood cells with red blood cell lysing solution (BD Biosciences) for 20-30 minutes. For all tissue preparations, live cells were enumerated using the ViCell automated counter (Beckman Coulter, Fullerton, Calif.). Following isolation, all cell preparations were washed with PBS/2% FCS prior to use in the assays described below.
(§2) For evaluation of cell populations within different tissues, single cell suspensions of the tissues were incubated with fluorochrome-conjugated antibodies that included anti-mouse CD4, CD8, CD25, CD44, CD62L (all antibodies from BD Biosciences or eBioscience, San Diego, Calif.). Intracellular Foxp3 expression analysis was performed according to the anti-Foxp3 manufacturer's protocol (eBiosciences, San Diego, Calif.). Following incubation with the antibodies, cells were washed and analyzed by flow cytometry (FACSCanto, BD Biosciences and FCS Express software, De Novo Software, Los Angeles, Calif.).

[2] = system: circulating and splenic T cells and B cells; assay: Flow cytometry of alemtuzumab-mediated lymphocyte depletion in blood and spleen; assay type: in vivo, huCD52 Tg mice
Procedure: as §1, §2

[3] = system: splenic B and T cell subsets; assay: Flow cytometry of splenic B and T cell subsets after rhGAA and methotrexate; assay type: in vivo, mice
Procedure: 20 mg/kg of Myozyme® (Genzyme Corporation) was given by tail vein injection once or for 2-6 weekly doses, commencing with the first methotrexate dose. Animals were sacrificed weekly or daily after initiation of treatment. Spleen, mesenteric, and inguinal lymph nodes were collected for flow cytometric analysis of T and B cell subsets and sera was collected for ELISA assays. Spleens were processed between glass slides and red blood cells (RBC) was lysed with lysing buffer purchased from BD Biosciences (catalog#555899) according to the manufacturer's instructions. Lymph nodes were processed between glass slides and washed with phosphate buffered saline (PBS) containing 2% fetal calf serum (FCS). Cells were resuspended in 200 μL of PBS containing 4% fetal bovine serum and 25 μg/mL of total mouse IgG and blocked for 30 minutes at 4° C. Approximately 3 million spleens cells and 1 million lymph node cells were stained with different antibody cocktails and analyzed with a high through put sampler (HTS) on a Becton Dickinson CANTOII flow cytometer. At least 100,000 cell events were acquired within the lymphocyte gate. Anti-mouse antibody cocktails consisted of PE-CD21/35 catalog #552957, FITC-catalog #553138, PE-CD138 catalog #553714, PE-PE-Cy7-CD4 catalog #552775, FITC-CD3e catalog #553062, APC-CD11b catalog #553312, PE-Cy7-IgM catalog #552867, APC-Cy7-CD8 catalog #557654, PE-CD273 (PD-L2) catalog #557796, APC-CD138 catalog #558626, PE-Cy7-CD11b catalog #552850, PE-CD93 (early B lineage) catalog #558039, APC-CD69 catalog #560689, Pe-Cy7-CD24 catalog #560536, FITC-CD1d catalog #553845, APC-CD5 catalog #550035, and Percp-Cy5-7AAD catalog #559925, all purchased from BD Pharmingen. FITC-FoxP3 intracellular staining kit was purchased from eBioscience. Pacific Blue (PB)-CD25 catalog #102022, PB-CD23 catalog #101616 and PB-CD86 catalog #105022 were purchased from BioLegend. Analysis of lymphocyte subsets was performed with FCS express version 3 software provided by De Novo Software. Percentages were generated with the batch processing option and absolute numbers were calculated according to the cell counts obtained. Spleen and lymph node cell counts were obtained with a Beckman Coulter Vi-cell XR cell viability analyzer according to the manufacturer's instructions.
C57BL/6 (Jackson Laboratories) or E4GAAKO (Charles River) mice 8-12 weeks old were given 5 mg/kg of methotrexate (Calbiochem catalog #454125) by intraperitoneal injection for 1 cycle (3 consecutive daily doses) commencing with treatment with 20 mg/kg of rhGAA. For the 1D11 studies, animals were treated with intraperitoneal injections of 5 mg/kg of either 1D11 or 13C4 (Genzyme Corporation) 3 time per week, every other day, commencing with rhGAA and methotrexate treatment. Animals were sacrificed on day 6 or 7 post rhGAA initiation depending on the mouse strain. Spleens were prepared in single cell suspension and loaded onto the RoboSep (STEMCELL technologies) instrument according to the manufacturer's instructions and subjected to B cell negative selection. Purified B cells were seeded at 500,000 cells per well in 96 well round bottom plates (Costar catalog #3799) and either incubated with no stimulation or with 10 μg/mL of LPS (Sigma catalog #L5014) for 48 hours at 37° C. All wells received Monensin (BD Bioscience catalog #554724) according to the manufacturer's instructions. Cells were allowed to incubate for at least 4 hours at 37° C. Samples were transferred to V bottom wells (USA Scientific catalog #651201) and spun at 1200 rpm for 5 minutes at 4° C. Cells were resuspended in 200 μL of PBS containing 4% fetal bovine serum and 25 μg/ml of total mouse IgG and blocked for 30 minutes at 4° C.

[4] = system: cytokines (BAFF, TNF-alpha, MCP-1, IL-13, IL-6, IL-12); assay: Serum cytokine levels in alemtuzumab-treated mice; assay type: in vivo, huCD52 Tg mice
[5] = Myozyme and methotrexate vs Myozyme alone

CN(Cc1cnc2nc(N)nc(N)c2n1)c1ccc(C(=O)N[C@@H](CCC(=O)O)C(=O)O)cc1 [methotrexate, Methotrexate]
levels of circulating CD4+ and CD8+ T cells ([1]; after fifth monthly mATG treatment, mATG alone or with one cycle of methotrexate): significantly depleted
depletion of CD4+, CD8+, T regulatory T cells and total CD19+ B cells ([1]; methotrexate alone, animals receiving an allogeneic transplant): did not deplete
depletion of CD4+, CD8+, T regulatory T cells and total CD19+ B cells ([1]; normal animals, blood and spleen): does not deplete
percentage of T regulatory cells in spleen and blood ([1]; single cycle of methotrexate, after fifth monthly mATG treatment): enhanced the ability of mATG to increase the percentage of T regulatory cells
absolute number of activated follicular and activated transitional 3 B cells ([1]; spleen, single cycle of methotrexate, around fifth mATG dose): no statistically significant decreases
depletion of circulating T cells by fifth monthly dose of alemtuzumab ([2]; alemtuzumab alone, or with methotrexate 5 mg/kg daily for first three days): restored the ability of alemtuzumab to deplete T cells
splenic T cell populations ([2]; methotrexate-treated animals, one day following fifth alemtuzumab treatment): significantly depleted
splenic B cell populations, except follicular B cells ([2]; mice treated with alemtuzumab and methotrexate, after fifth alemtuzumab dose): not significantly depleted
effect on marginal zone B cells with alemtuzumab ([2]; spleen, two days following last day of methotrexate treatment): may enhance the depletion of marginal zone B cells
depletion of circulating B cells by fifth monthly dose of alemtuzumab ([2]; with methotrexate 5 mg/kg daily for first three days): enhance the depletion of B cells
IL-10, TGFbeta and FoxP3 mean fluorescence intensity in multiple cell subsets [3, 5]: statistically significant increases
number of B10 B cells expressing IL-10 [3, 5]: increased
activated B cell subsets (marginal zone, follicular, transitional 2 and 3) ([3]; following methotrexate treatment with rhGAA): significantly increased
numbers of FoxP3+ B cells ([3]; methotrexate and Myozyme): increase
absolute cell numbers of IL-10, TGF-beta and FoxP3 expressing transitional 2, transitional 3 and follicular B cells ([3]; methotrexate vs Myozyme alone): increased
numbers of TGF-beta-expressing B10 B cells ([3]; methotrexate-tolerized animals): increased
B10 regulatory B cell population ([3]; seven and eight days following Myozyme treatment): significant increases
activated T helper, T cytotoxic and T regulatory cell populations ([3]; two cycles of Myozyme and methotrexate): largely unchanged
levels of pro-inflammatory cytokines MCP-1, IL-13, IL-6 and IL-12 ([4]; 24 hours after fifth alemtuzumab dose, methotrexate 5 mg/kg three days at first dose): decreased
TNF-alpha levels ([4]; methotrexate 2 mg/kg, one week after second cycle of alemtuzumab): statistically significant increase
BAFF levels ([4]; serum, 24 hours after 5th dose of alemtuzumab, with vs without methotrexate): no difference
